# Patent US20230203482A1, “Methods of Rescuing Stop Codons via Genetic Reassignment with ACE-tRNA” (THE WISTAR INSTITUTE OF ANATOMY AND BIOLOGY, priority 2017, published 2023)
# Test system: NLuc-UGA PTC
# Assay: NanoLuc nonsense reporter screen (all-in-one HTC plasmid), TGA/UGA PTC, HEK293 cells
# Type: cell-based, human
# Conditions: for stop codon selectivity (NanoLuc TGA, TAA or TAG reporter): transiently transfected HEK293 cells
# Text: Several different nonsense mutations cause CF, thus underlying roughly 10% of all CF disease. FIG. 7. These cases are concentrated into […] specific genetic lesions: E60X, R75X, G542X, R553X, Q890X, Y1092X, R1158X, R1162X and W1282X. A screen was developed to screen existing human tRNA sequences for modification and tolerance to anti-codon editing. To this end, roughly 144 ACE-tRNAs were candidates to test for those that could be used to promote the repair of the disease causative nonsense codon and the expression of the full-length protein. Specifically, using the scheme described in FIG. 11, tRNA libraries were generated to identify novel tRNA sequences that encode for ACE tRNA with the ability to repair the top CF causative nonsense mutations. Specifically, 10 ng of annealed oligos encoding the ACE-tRNAs were combined with 50 ng of NanoLuc reporter plasmid, 1 μl 10×CutSmart Buffer (NEB), 1 μl T4 ligase (NEB), 10 mM ATP and 1 μl BbsI (NEB) and cycled in a thermocycler as described in FIG. 11. 1 μl of the reaction was transformed into competent E. coli and the transformants were plated on ampicillin agar plates. One transformant was picked per plate was picked, grown in 1 ml of LB under ampicillin selection, miniprepped and sequence verified.
# Screening studies were first performed to identify the best ACE-tRNA Candidates from tryptophan and glycine. 125 ng of sequence verified miniprep cDNA of NanoLuc reporter plasmid with ACE-tRNA was transfected into HEK cells using calcium phosphate. HEK cells were plated in 96 well plates at 4×10^4 the day prior. 24 hours after transfection the media was replaced with 20 μl of PBS and 15 μl of NanoGlo reagent (Promega) was added. Plates were read on a SpectraMax i3 (Molecular Devices). Data are of replicates of 3 or greater. FIG. 8.
# FIG. 10. An additional modification of the tRNA was made to further enable their function for the purpose of suppression of nonsense codons and the promotion of protein expression. […] To this end, single and double mutations were directly engineered into the t-stem loop of tRNA Trpchr17.trna39—an ACE-tRNA identified with activity for the rescue of tryptophan TGA nonsense codons. Thirty-eight tRNA t-stem variants were thus generated and screened in HEK cells transiently transfected with the nonsense rescue reporter construct shown in FIG. 4. […] This is a generalizable modification, that is, new tRNA sequences identified, by example 1 and 2, can be made better (for their ability to rescue nonsense codons) through further rationale modifications. Such approaches aid in the therapeutic utility of ACE-tRNA directed to tissue types with low abundance target RNA or where tRNA delivery may be limiting.
# In order to enable the identification of the nucleotide composition and functional ability to suppress nonsense codons by new types of tRNA, an All-In-One Plasmid With A One Pot Cloning Reaction was invented for High Throughput Cloning FIG. 11. This approach enables the facile investigation of ACE-tRNA activity via luciferase activity in a standard 96 well format. Briefly, synthetic nucleotide sequences encoding for tRNA are ligated into the NanoLuc Reporter plasmid, with an example of the TGA nonsense reporter plasmid variant shown in FIG. 11. […] and TAG (amber) stop codon rescue vectors have been successfully designed and implemented in FIGS. 16-19. The benefits are the approach is that DNA oligos encoding for tRNA libraries can be ligated in the NanoLuc reporter plasmid with the presence of the restriction enzyme and ligase with the reaction pushed to nearly 100% incorporation of tRNA insert (FIG. 11)-thus the ‘one-pot’ designation. The reaction is transformed into E. coli, with the resultant cDNA purified by standard methods. […]
Molecule,"Ranking (Table 7, Trp TGA)","stop codon selectivity (NanoLuc TGA, TAA or TAG reporter) (listed as ACE-tRNA^Trp)","Ranking (Table 8, Gly TGA)","stop codon selectivity (NanoLuc TGA, TAA or TAG reporter) (listed as Glychr19.t2)"
"Trpchr17.trna39: top performing tryptophan ACE-tRNA UGA suppressor, SEQ ID NO: 48",#1,Stop codon specificity is maintained,–,–
"Glychr19.trna2: top performing glycine ACE-tRNA UGA suppressor, SEQ ID NO: 53 (nucleic acid, chemistry not fully specified) GCGTTGGTGGTATAGTGGTTAGCATAGCTGCCTTCAAAGCAGTTGACCCGGGTTCGATTCCCGGCCAACGCA",–,–,#1,selectively suppresses the UGA stop codon
